Activity calls are given as the source filed them. Cut-off read from the data, not from the text of the source, for most assays here: actives have a measured EC50 and inactives only a lower limit. Bounds are passed on as bounds.

Assay [1] addresses T1, Heat shock factor protein 1 (Mus musculus, UniProt P38532).
T1 sequence (P38532 whole entry): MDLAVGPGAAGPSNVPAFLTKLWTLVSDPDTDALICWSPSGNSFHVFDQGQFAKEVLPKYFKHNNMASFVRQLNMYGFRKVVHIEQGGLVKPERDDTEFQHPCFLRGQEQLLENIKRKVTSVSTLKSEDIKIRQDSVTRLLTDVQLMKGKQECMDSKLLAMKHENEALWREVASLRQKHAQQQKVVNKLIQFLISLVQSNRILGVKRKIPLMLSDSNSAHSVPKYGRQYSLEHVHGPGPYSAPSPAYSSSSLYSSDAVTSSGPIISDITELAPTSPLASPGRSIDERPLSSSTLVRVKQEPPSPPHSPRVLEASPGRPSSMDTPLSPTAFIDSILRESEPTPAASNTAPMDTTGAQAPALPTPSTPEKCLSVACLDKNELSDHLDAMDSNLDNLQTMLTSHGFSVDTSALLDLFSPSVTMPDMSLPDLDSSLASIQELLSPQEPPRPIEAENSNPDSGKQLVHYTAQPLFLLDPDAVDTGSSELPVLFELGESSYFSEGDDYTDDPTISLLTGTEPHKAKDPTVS
Put plainly: HSF1 potentiators in luciferase reporter cells, confirmation, cell-based, NIH3T3, luminescence, dose retest (AID 435004).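 Note: stress induced by proteasome inhibitor MG132 added 30 min after compound; luciferase reporter driven by HSF1 response element in NIH3T3 cells; actives raise luminescence as potentiators of the MG132 stress response.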 It is filed as functional. In general terms: In a reporter assay the amount or activity of a reporter protein is the signal.

Assay [2] can be described thus: Luminescence Cell-Based Dose Response HTS to Identify Activators of Luciferase Translation or Activity in H4 […] Cells. [Related pubchem assays: 1829 (Project Summary), 1814 (Primary HTS)]. Type of assay: functional.
A further assay deals with T2, Protein RecA (Mycobacterium tuberculosis, UniProt P9WHJ3).
T2 sequence (P9WHJ3 whole entry): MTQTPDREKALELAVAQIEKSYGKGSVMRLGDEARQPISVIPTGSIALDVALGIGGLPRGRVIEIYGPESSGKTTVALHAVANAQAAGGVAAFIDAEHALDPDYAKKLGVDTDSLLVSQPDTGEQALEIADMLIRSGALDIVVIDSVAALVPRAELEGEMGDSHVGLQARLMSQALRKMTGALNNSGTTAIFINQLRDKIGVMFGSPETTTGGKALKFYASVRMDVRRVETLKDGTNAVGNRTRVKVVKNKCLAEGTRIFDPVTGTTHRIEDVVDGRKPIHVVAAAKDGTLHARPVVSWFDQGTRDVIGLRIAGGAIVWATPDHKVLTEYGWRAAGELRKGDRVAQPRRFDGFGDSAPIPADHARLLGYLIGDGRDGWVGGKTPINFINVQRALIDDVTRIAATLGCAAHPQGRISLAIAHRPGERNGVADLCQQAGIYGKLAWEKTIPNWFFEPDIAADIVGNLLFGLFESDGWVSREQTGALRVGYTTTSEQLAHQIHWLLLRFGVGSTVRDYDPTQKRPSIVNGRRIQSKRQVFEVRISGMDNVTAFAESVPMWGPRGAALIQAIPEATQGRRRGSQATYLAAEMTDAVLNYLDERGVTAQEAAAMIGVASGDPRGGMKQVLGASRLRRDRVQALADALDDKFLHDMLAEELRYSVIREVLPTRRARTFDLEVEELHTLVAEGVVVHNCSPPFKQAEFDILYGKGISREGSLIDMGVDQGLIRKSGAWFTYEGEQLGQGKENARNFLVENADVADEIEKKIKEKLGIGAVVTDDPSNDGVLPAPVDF
Put plainly: Fluorescence Cell-Free Homogeneous Dose Retest to Identify Inhibitors of RecA-Intein Splicing Activity. [Related pubchem assays (depositor defined):AID2097, AID2223, AID489010, AID492950]. Type of assay: functional.

Assay [3] has as its target T3, Replicative DNA helicase DnaB (Mycobacterium tuberculosis, UniProt P9WMR3).
T3 sequence (P9WMR3 whole entry): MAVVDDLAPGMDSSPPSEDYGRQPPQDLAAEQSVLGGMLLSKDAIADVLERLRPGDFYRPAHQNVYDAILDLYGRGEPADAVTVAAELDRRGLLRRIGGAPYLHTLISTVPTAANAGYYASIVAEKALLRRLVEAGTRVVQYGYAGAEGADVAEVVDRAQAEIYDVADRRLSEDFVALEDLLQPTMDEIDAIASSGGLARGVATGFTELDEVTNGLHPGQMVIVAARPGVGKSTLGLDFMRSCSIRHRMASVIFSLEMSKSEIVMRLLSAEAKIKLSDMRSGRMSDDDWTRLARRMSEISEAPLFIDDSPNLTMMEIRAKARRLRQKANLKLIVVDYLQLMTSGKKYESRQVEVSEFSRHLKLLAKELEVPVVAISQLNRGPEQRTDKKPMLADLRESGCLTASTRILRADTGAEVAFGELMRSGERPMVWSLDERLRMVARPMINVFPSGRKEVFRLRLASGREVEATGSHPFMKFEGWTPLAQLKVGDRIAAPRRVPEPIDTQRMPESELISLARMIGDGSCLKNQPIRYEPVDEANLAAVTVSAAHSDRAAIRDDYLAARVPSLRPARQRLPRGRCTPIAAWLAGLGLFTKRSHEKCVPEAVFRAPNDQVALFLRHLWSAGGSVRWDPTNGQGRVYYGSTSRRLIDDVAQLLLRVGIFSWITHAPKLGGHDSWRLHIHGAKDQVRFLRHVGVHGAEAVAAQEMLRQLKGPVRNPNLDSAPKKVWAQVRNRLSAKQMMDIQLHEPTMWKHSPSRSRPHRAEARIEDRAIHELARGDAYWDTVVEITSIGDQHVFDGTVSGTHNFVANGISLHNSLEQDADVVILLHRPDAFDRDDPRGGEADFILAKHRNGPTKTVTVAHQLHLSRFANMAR
Put plainly: DnaB intein splicing inhibitors, dose response, biochemical, cell-free fluorescence (AID 449749). It is filed as functional.

Another assay has as its system H4. Nature of the assay: Luminescence Cell-Based Dose Response HTS to Identify Activators of 5'UTR Stem-Loop Driven Prion Protein mRNA Translation in H4 Neuroglioblastoma Cells. [Related pubchem assays: 1829 (Project Summary), 1814 (Primary HTS)]. Type of assay: functional. The note with it: Homo sapiens.
Assay [4] deals with T4, Rac GTPase-activating protein 1 (Homo sapiens, UniProt Q9H0H5).
T4 sequence (Q9H0H5 whole entry): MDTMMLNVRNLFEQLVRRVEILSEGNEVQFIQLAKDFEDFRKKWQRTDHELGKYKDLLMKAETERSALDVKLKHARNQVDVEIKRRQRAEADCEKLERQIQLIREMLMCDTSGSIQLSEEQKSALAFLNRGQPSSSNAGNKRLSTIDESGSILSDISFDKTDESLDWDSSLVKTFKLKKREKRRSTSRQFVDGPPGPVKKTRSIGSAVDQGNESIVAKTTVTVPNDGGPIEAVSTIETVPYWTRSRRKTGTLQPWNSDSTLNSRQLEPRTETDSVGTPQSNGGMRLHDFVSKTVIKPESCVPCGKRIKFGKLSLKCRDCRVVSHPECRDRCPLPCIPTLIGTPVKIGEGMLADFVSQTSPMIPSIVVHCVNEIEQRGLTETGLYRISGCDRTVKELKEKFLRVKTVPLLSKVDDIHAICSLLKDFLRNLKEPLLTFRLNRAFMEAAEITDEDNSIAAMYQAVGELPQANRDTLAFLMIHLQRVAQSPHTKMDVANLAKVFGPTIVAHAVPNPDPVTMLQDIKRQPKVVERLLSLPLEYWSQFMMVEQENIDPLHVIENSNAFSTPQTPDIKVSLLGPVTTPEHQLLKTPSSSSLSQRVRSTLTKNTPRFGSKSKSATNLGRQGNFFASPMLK
Nature of the assay: MgcRacGAP GTPase-activating activity inhibitors, confirmation, biochemical, ADP Hunter fluorescence, primary and confirmatory (AID 624330). It is filed as functional.

A further assay in a line: cells. It is filed as functional.
Assay [5] is described as follows: inhibitors of intracellular T. cruzi replication, confirmation, NIH3T3 host cells, beta-gal luminescence (AID 2044).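 Note: intracellular parasites grown in NIH/3T3 mouse fibroblasts as host cells; luminescent beta-galactosidase reporter signal from transgenic T. cruzi replicating inside host cells; inhibitors lower the luminescence signal.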 It is filed as functional, cell-based.
Assay [6] in a line: cytotoxicity toward NIH3T3 fibroblasts, dose response, counter-screen, cell-based, ATP luminescence, mouse fibroblasts (AID 2010).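 Note: cells exposed to compound for about 90 hours before reading.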 It is filed as functional. (In general: Counterscreens check selectivity or assay interference.)
For assay [7], the target named is T5, Calpain-2 catalytic subunit (Sus scrofa, UniProt P43367).
T5 sequence (P43367 whole entry): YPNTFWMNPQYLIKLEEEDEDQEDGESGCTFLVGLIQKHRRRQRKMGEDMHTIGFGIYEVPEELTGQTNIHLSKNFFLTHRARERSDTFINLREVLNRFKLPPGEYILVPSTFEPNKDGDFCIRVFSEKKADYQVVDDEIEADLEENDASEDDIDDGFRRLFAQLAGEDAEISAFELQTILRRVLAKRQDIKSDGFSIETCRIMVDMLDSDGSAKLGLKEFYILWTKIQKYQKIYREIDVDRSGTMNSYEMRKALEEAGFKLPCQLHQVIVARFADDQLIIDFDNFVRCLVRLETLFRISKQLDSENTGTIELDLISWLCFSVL
Put plainly: pig calpain II inhibitor potency, dose response, biochemical, fluorogenic peptide substrate (AID 1420). It is filed as functional.

Assay [8] relates to Streptococcus sp. 'group A'. Nature of the assay: growth inhibition of control SK(-) GAS strain, dose response, counter-screen for streptokinase expression inhibitor project, luminescence, kanamycin, BacTiterGlo, confirmation (AID 1900). Type of assay: functional, organism-based.
A short description of assay [9]: Luminescence Cell-Based Dose Retest to Confirm Inhibitors of Cancer Stem Cells. [Related pubchem assays (depositor defined):AID2717, AID2721]. The note with it: Homo sapiens. Type of assay: functional.
For the next assay, the target named is T6, Streptokinase A (Streptococcus pyogenes serotype M1, UniProt P10520).
T6 sequence (P10520 whole entry): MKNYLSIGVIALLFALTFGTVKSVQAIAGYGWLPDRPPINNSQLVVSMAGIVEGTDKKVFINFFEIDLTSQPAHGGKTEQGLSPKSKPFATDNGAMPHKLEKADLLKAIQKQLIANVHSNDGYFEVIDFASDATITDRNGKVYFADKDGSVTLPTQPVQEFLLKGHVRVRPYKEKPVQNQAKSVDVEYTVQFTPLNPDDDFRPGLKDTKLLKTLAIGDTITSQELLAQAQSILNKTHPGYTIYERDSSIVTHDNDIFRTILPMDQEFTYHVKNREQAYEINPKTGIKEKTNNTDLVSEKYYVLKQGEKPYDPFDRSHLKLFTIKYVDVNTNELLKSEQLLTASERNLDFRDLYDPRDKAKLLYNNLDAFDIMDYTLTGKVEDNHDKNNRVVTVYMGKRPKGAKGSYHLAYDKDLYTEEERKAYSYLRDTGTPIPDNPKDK
Nature of the assay: S. pyogenes streptokinase expression inhibitors, potency, dose response, plasminogen activation absorbance, OD405 (AID 1914).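 Note: secreted streptokinase activity via plasminogen activation per viability signal from cell pellet.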 It is filed as functional, Streptococcus pyogenes M1 GAS.

For a further assay, the system named is Streptococcus. Nature of the assay: Group A Streptococcus viability loss, dose response, counter-screen for streptokinase expression inhibitor project, luminescence, BacTiterGlo (AID 1915).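 Note: potency for reduction of bacterial viability or growth.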 Type of assay: functional, organism-based.

Turning to `Cc1cc(Cl)ccc1C(=O)C1CCCN(C(=O)c2cnsn2)C1` (centres undefined), the EC50 (usually the midpoint of the concentration-response curve) in assay [1] is > 260 µM (inactive).

`CO/C(O)=C1\C(C)=NC(=S)NC1c1ccc(-c2cccc(Cl)c2)o1` (centres undefined): in assay [1], the EC50 is > 260 µM (inactive).

For the compound `O=c1c(-c2ccc3c(c2)OCCO3)coc2cc(O)cc(O)c12`, the half-maximal effective concentration (EC50) in assay [1] was 19.2 µM (active).

With `Cc1cc(N(C)C)c(C#N)c(NCc2ccccc2)n1`, the EC50 in assay [1] was > 260 µM (inactive).

Take `Cc1nc2scc(-c3ccc(Cl)cc3)c2c(=O)n1N`: the EC50 in assay [1] is > 260 µM (inactive).

For the compound `COc1cc(/C=C2\C(=O)N(CCC#N)N=C2C)ccc1OCC(=O)Nc1ccccc1`, the concentration giving a half-maximal response (EC50) is < 0.1 µM (active) in assay [2], 2.79 µM (active) on Protein RecA and 64.8 µM (active) in the assay on H4. The AC50 – broadly, the concentration at which the activity in the assay is half-maximal – in [3] is 3.74 µM (active). The IC50 – broadly, the concentration that gives 50% inhibition – in assay [4] is 144 µM (active).

Take `Cn1nnc(NC(=O)COc2ccc(C3CCCCC3)cc2)n1`: the IC50 in “cells” was 23.3 µM (active).

Regarding `Cc1nc2ccc(Br)cc2c(=O)n1Cc1cccs1`, in assay [1], the EC50 is > 260 µM (inactive).

For `O=C(CCSc1ccccn1)c1ccccc1`, the IC50 in “cells” was 23.2 µM (active).

For `Cc1cccc(N=C(S)N(CCN(C)C)C(C)c2cccnc2)c1` (centres undefined), the EC50 in assay [1] is > 260 µM (inactive).

On to `C=CCn1c(SCC(=O)NC2CCCC2)nc2scc(-c3ccco3)c2c1=O`, for which the EC50 in assay [1] was > 260 µM (inactive).

Regarding `CC(C)N(Cc1nc(-c2ccc(Cl)cc2)no1)C(=O)CN(C)S(=O)(=O)c1ccc(Cl)cc1`, the half-maximal effective concentration (EC50) was 2.71 µM (active) in [5], > 260 µM (inactive) in [1] and > 60 µM (not active) in assay [6].

As for `COc1ccc(/C=C/C(=O)NCCCc2ccccc2)cc1`, in assay [1], the EC50 was > 260 µM (inactive).

As for `O=c1[nH]c2ccccc2n1CCC1CCCCC1`, the EC50 in assay [1] is > 260 µM (inactive).

On to `O=S(=O)(c1ccc2c(c1)OCCO2)N1CCc2ccccc21`, for which the IC50 in assay [7] is given as > 50 µM (not active).

With `COc1cc(OC)cc(C(=O)NCCN2CCOCC2)c1`, the IC50 in assay [7] is recorded as 48.3 µM (not active).

Take `O=C(Nc1ccc(Cl)c(Cl)c1)O/N=C/c1ccncc1`: the EC50 in assay [8] was 1.75 µM (active); on Streptokinase A it was > 150 µM (not active); with Streptococcus it was 36.5 µM (active). The IC50 in the assay “cells” is 9.54 µM (active). Also, the AC50 in assay [9] was 5.98 µM (active).

As for `CCOC(=O)Cn1c(C)c(Br)c(=O)c2cccc(C)c21`, the IC50 in “cells” is 11.2 µM (active).

On to `CCOC(=O)c1ccc(NC(=O)Nc2ncccc2C)cc1`, for which the IC50 in [7] was 12.4 µM (not active).
